For 34 compounds, IC50 results are on record in US12139499B2, “Heteroaryl compounds for treating Huntington's disease” (PTC THERAPEUTICS, INC., priority 2018, dated 2024).

In this test the test system is Endogenous Huntingtin Protein. Nature of the test: Endogenous Huntingtin Protein Assay (ELISA-based MSD electrochemiluminescence). In kind it is cell-based. The note with it: Table 1. Put shortly:
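Sandwich MSD electrochemiluminescence immunoassay. Capture used MW1 (expanded polyglutamine) or MAB2166 antibody coated at 1 μg/mL overnight at 4 °C. Samples were bound overnight at 4 °C, then a rabbit monoclonal detection antibody and SULFO-TAG anti-rabbit, each at 0.25 μg/mL, were applied for 1 h at room temperature.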

The structures appear in SMILES notation.

As for `Cc1cn2cc(-c3cc4sc(N(C)C5CC(C)(C)NC(C)(C)C5)nc4cn3)cc(C)c2n1` [Compound 88, 6-(2,8-dimethylimidazo[1,2-a]pyridin-6-yl)-N-methyl-N-(2,2,6,6-tetramethylpiperidin-4-yl)[1,3]thiazolo[4,5-c]pyridin-2-amine], the IC50 is ≤ 100 nM.

`Cc1cn2nc(-c3cc4sc(N(C)C5CC(C)(C)NC(C)(C)C5)nc4cn3)ccc2n1` [Compound 89, N-methyl-6-(2-methylimidazo[1,2-b]pyridazin-6-yl)-N-(2,2,6,6-tetramethylpiperidin-4-yl)[1,3]thiazolo[4,5-c]pyridin-2-amine] registered an IC50 of 500 to 1000 nM.

Regarding `Cc1cn2nc(-c3cc4sc(N(C)C5CC(C)(C)NC(C)(C)C5)nc4cn3)cc(C)c2n1` [Compound 90, 6-(2,8-dimethylimidazo[1,2-b]pyridazin-6-yl)-N-methyl-N-(2,2,6,6-tetramethylpiperidin-4-yl)[1,3]thiazolo[4,5-c]pyridin-2-amine], the IC50 lay within 100 to 500 nM.

Take `CN(c1nc2c(F)cc(-c3cc(C#N)c4nn(C)cc4c3)cc2s1)C1CC(C)(C)NC(C)(C)C1` [Compound 91, 5-{4-fluoro-2-[methyl(2,2,6,6-tetramethylpiperidin-4-yl)amino]-1,3-benzothiazol-6-yl}-2-methyl-2H-indazole-7-carbonitrile]: the IC50 was ≤ 100 nM.

As to `Cc1cn2nc(-c3cc(F)c4nc(C5CCN(C)CC5)sc4c3)ccc2n1` [Compound 92, 6-[4-fluoro-2-(1-methylpiperidin-4-yl)-1,3-benzothiazol-6-yl]-2-methylimidazo[1,2-b]pyridazine], the 50% inhibitory concentration (IC50) was ≤ 100 nM.

`CCc1cc(-c2ccc3nc(N(C)C4CC(C)(C)NC(C)(C)C4)sc3c2)cn2cc(C)nc12` [Compound 93, 6-(8-ethyl-2-methylimidazo[1,2-a]pyridin-6-yl)-N-methyl-N-(2,2,6,6-tetramethylpiperidin-4-yl)-1,3-benzothiazol-2-amine]: the half-inhibitory concentration (IC50) fell in the range of 100 to 500 nM.

With `Cc1nc2c(C)cc(-c3ccc4nc(C5CCNCC5)sc4c3)cc2[nH]1` [Compound 94, 6-(2,4-dimethyl-1H-benzimidazol-6-yl)-2-(piperidin-4-yl)-1,3-benzothiazole], the IC50 was ≤ 100 nM.

Compound `Cc1nc2ccc(-c3ccc4nc(C5CCNCC5)sc4c3)cc2[nH]1` [Compound 95, 6-(2-methyl-1H-benzimidazol-6-yl)-2-(piperidin-4-yl)-1,3-benzothiazole] yielded an IC50 of 100 to 500 nM.

In turn, `Cc1cn2cc(-c3ccc4nc(N(C)C5CC(C)(C)NC(C)(C)C5)sc4c3)cc(C(F)(F)F)c2n1` [Compound 96, N-methyl-6-[2-methyl-8-(trifluoromethyl)imidazo[1,2-a]pyridin-6-yl]-N-(2,2,6,6-tetramethylpiperidin-4-yl)-1,3-benzothiazol-2-amine] had an IC50 of 100 to 500 nM.

As for `Cc1cn2nc(-c3ccc4nc(C5CCNCC5)sc4c3)ccc2n1` [Compound 97, 2-methyl-6-[2-(piperidin-4-yl)-1,3-benzothiazol-6-yl]imidazo[1,2-b]pyridazine], the IC50 is ≤ 100 nM.

As for `COc1cc(-c2cc(C)c3nn(C)cc3c2)cc2sc(C3=CCNCC3)nc12` [Compound 98, 6-(2,7-dimethyl-2H-indazol-5-yl)-4-methoxy-2-(1,2,3,6-tetrahydropyridin-4-yl)-1,3-benzothiazole], the IC50 is 100 to 500 nM.

Take `COc1cc(-c2cc(C)c3nn(C)cc3c2)cc2sc(C3CCNCC3)nc12` [Compound 99, 6-(2,7-dimethyl-2H-indazol-5-yl)-4-methoxy-2-(piperidin-4-yl)-1,3-benzothiazole]: the half-inhibitory concentration (IC50) is 1000 to 3000 nM.

In the case of `Cc1cc(-c2cc(O)c3nc(C4=CCNCC4)sc3c2)cc2cn(C)nc12` [Compound 100, 6-(2,7-dimethyl-2H-indazol-5-yl)-2-(1,2,3,6-tetrahydropyridin-4-yl)-1,3-benzothiazol-4-ol], the 50% inhibitory concentration (IC50) is 500 to 1000 nM.

As to `Cc1cc(-c2ncc3nc(N(C)C4CC(C)(C)NC(C)(C)C4)sc3c2F)cc2cn(C)nc12` [Compound 101, 6-(2,7-dimethyl-2H-indazol-5-yl)-7-fluoro-N-methyl-N-(2,2,6,6-tetramethylpiperidin-4-yl)[1,3]thiazolo[4,5-c]pyridin-2-amine], the IC50 was 100 to 500 nM.

In the case of `Cn1cc2cc(-c3cc(F)c4nc(C5=CCNCC5)sc4c3)cc(C#N)c2n1` [Compound 102, 5-[4-fluoro-2-(1,2,3,6-tetrahydropyridin-4-yl)-1,3-benzothiazol-6-yl]-2-methyl-2H-indazole-7-carbonitrile], the half-maximal inhibitory concentration (IC50) is ≤ 100 nM.

For the compound `Cn1cc2cc(-c3cc(F)c4nc(C5CCNCC5)sc4c3)cc(CN)c2n1` [Compound 103, 1-{5-[4-fluoro-2-(piperidin-4-yl)-1,3-benzothiazol-6-yl]-2-methyl-2H-indazol-7-yl}methanamine], the half-inhibitory concentration (IC50) is ≤ 100 nM.

With `Cn1cc2cc(-c3cc(F)c4nc(C5CCNCC5)sc4c3)cc(C#N)c2n1` [Compound 104, 5-[4-fluoro-2-(piperidin-4-yl)-1,3-benzothiazol-6-yl]-2-methyl-2H-indazole-7-carbonitrile], the IC50 was ≤ 100 nM.

The compound `Cc1cn2cc(-c3cc4sc(N(C)C5CC(C)(C)NC(C)(C)C5)nc4cn3)cnc2n1` [Compound 105, N-methyl-6-(2-methylimidazo[1,2-a]pyrimidin-6-yl)-N-(2,2,6,6-tetramethylpiperidin-4-yl)[1,3]thiazolo[4,5-c]pyridin-2-amine] returned an IC50 of 100 to 500 nM.

With `CCN1CCC(c2nc3c(F)cc(-c4ccc5nc(C)cn5n4)cc3s2)CC1` [Compound 106, 6-[2-(1-ethylpiperidin-4-yl)-4-fluoro-1,3-benzothiazol-6-yl]-2-methylimidazo[1,2-b]pyridazine], the IC50 is ≤ 100 nM.

In the case of `Cc1cn2nc(-c3cc(F)c4nc(C5CCN(C)CC5)sc4c3)cc(C)c2n1` [Compound 107, 6-[4-fluoro-2-(1-methylpiperidin-4-yl)-1,3-benzothiazol-6-yl]-2,8-dimethylimidazo[1,2-b]pyridazine], the 50% inhibitory concentration (IC50) is ≤ 100 nM.

`Cc1cc(-c2ccc3nc(N(C)C4CCN(C)C(C)C4)sc3c2)cc2cn(C)nc12` (stereo not shown) [Compound 108, 6-(2,7-dimethyl-2H-indazol-5-yl)-N-(1,2-dimethylpiperidin-4-yl)-N-methyl-1,3-benzothiazol-2-amine] returned an IC50 of 500 to 1000 nM.

Turning to `Cn1cc2cc(-c3ncc4nc(C5CCNCC5)sc4n3)cc(C#N)c2n1` [Compound 109, 2-methyl-5-[2-(piperidin-4-yl)[1,3]thiazolo[5,4-d]pyrimidin-5-yl]-2H-indazole-7-carbonitrile], the half-maximal inhibitory concentration (IC50) is 100 to 500 nM.

As for `Cc1cc(-c2ncc3nc(C4CCNCC4)sc3n2)cc2cn(C)nc12` [Compound 110, 5-(2,7-dimethyl-2H-indazol-5-yl)-2-(piperidin-4-yl)[1,3]thiazolo[5,4-d]pyrimidine], the IC50 lay within 100 to 500 nM.

Take `Cc1cn2cc(-c3ccc4nc(N(C)C5CC(C)(C)NC(C)(C)C5)sc4c3)cc(F)c2n1` [Compound 111, 6-(8-fluoro-2-methylimidazo[1,2-a]pyridin-6-yl)-N-methyl-N-(2,2,6,6-tetramethylpiperidin-4-yl)-1,3-benzothiazol-2-amine]: the half-inhibitory concentration (IC50) is ≤ 100 nM.

The compound `Cc1nc2ccc(-c3ccc4nc(C5CCNCC5)sc4c3)cc2o1` [Compound 112, 2-methyl-6-[2-(piperidin-4-yl)-1,3-benzothiazol-6-yl]-1,3-benzoxazole] yielded an IC50 of 100 to 500 nM.

In the case of `Cc1cn2cc(-c3ccc4nc(C5CCNCC5)sc4c3)cc(F)c2n1` [Compound 113, 6-(8-fluoro-2-methylimidazo[1,2-a]pyridin-6-yl)-2-(piperidin-4-yl)-1,3-benzothiazole], the IC50 was ≤ 100 nM.

Consider `Cc1cn2cc(-c3ccc4nc(C5CCNCC5)sc4c3)cc(C)c2n1` [Compound 114, 6-(2,8-dimethylimidazo[1,2-a]pyridin-6-yl)-2-(piperidin-4-yl)-1,3-benzothiazole], for which the half-inhibitory concentration (IC50) was ≤ 100 nM.

Compound `Cn1cc2cc(-c3ccc4nc(C5CCNC(C)(C)C5)sc4c3)ccc2n1` (stereo not shown) [Compound 115, 2-(2,2-dimethylpiperidin-4-yl)-6-(2-methyl-2H-indazol-5-yl)-1,3-benzothiazole] had an IC50 of 500 to 1000 nM.

For the compound `Cc1cn2cc(-c3cc4sc(N(C)C5CC(C)(C)NC(C)(C)C5)nc4cn3)cc(C(F)(F)F)c2n1` [Compound 116, N-methyl-6-[2-methyl-8-(trifluoromethyl)imidazo[1,2-a]pyridin-6-yl]-N-(2,2,6,6-tetramethylpiperidin-4-yl)[1,3]thiazolo[4,5-c]pyridin-2-amine], the 50% inhibitory concentration (IC50) lay in the range of 100 to 500 nM.

For `CN(c1nc2cnc(-c3cc(C#N)c4nn(C)cc4c3)cc2s1)C1CC(C)(C)NC(C)(C)C1` [Compound 117, 2-methyl-5-{2-[methyl(2,2,6,6-tetramethylpiperidin-4-yl)amino][1,3]thiazolo[4,5-c]pyridin-6-yl}-2H-indazole-7-carbonitrile], the IC50 was ≤ 100 nM.

`Cc1cc(-c2cc3sc(N(C)C4CC(C)(C)NC(C)(C)C4)nc3nn2)cc2cn(C)nc12` [Compound 118, 3-(2,7-dimethyl-2H-indazol-5-yl)-N-methyl-N-(2,2,6,6-tetramethylpiperidin-4-yl)[1,3]thiazolo[4,5-c]pyridazin-6-amine] came in with an IC50 of 100 to 500 nM.

Take `CN(c1nc2nnc(-c3ccc(-c4cn[nH]c4)cc3O)cc2s1)C1CC(C)(C)NC(C)(C)C1` [Compound 119, 2-{6-[methyl(2,2,6,6-tetramethylpiperidin-4-yl)amino][1,3]thiazolo[4,5-c]pyridazin-3-yl}-5-(1H-pyrazol-4-yl)phenol]: the IC50 was ≤ 100 nM.

Regarding `Cc1cn2nc(-c3cc(F)c4nc(N5CCNCC5)sc4c3)cc(C)c2n1` [Compound 120, 6-[4-fluoro-2-(piperazin-1-yl)-1,3-benzothiazol-6-yl]-2,8-dimethylimidazo[1,2-b]pyridazine], the 50% inhibitory concentration (IC50) is ≤ 100 nM.

In the case of `Cc1cn2nc(-c3cc(F)c4nc(N5CCCNCC5)sc4c3)cc(C)c2n1` [Compound 121, 6-[2-(1,4-diazepan-1-yl)-4-fluoro-1,3-benzothiazol-6-yl]-2,8-dimethylimidazo[1,2-b]pyridazine], the IC50 is ≤ 100 nM.
